From PubChem BioAssay AID1963966 (Molecular Pharmacology Branch, DTP, NCI, 2024)

Test system: 935938-334-R-J1-PDC spheroids with HUVEC/MSC, viability
Test: Anticancer human tumor 935938-334-R-J1-PDC patient-derived small intestine adenocarcinoma cell line growth inhibition [PI3K]
Settings: for IC50: curve of first compound; for viability, T/C: stronger effect = lower value
Method in brief: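 Targeted small molecules plus PI3K inhibitors, half-log dose series from Cmax (default top 10 microM), were applied to heterotypic spheroids of cancer cells with HUVEC and MSCs. Viability indicated growth inhibition.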

[1] = second compound 0.0316 µM, first compound 0.0316 µM
[2] = second compound 0.0316 µM, first compound 0.1 µM
[3] = second compound 0.0316 µM, first compound 0.316 µM
[4] = second compound 0.0316 µM, first compound 1 µM
[5] = second compound 0.1 µM, first compound 0.0316 µM
[6] = second compound 0.1 µM, first compound 0.1 µM
[7] = second compound 0.1 µM, first compound 0.316 µM
[8] = second compound 0.1 µM, first compound 1 µM
[9] = second compound 0.316 µM, first compound 0.0316 µM
[10] = second compound 0.316 µM, first compound 0.1 µM
[11] = second compound 0.316 µM, first compound 0.316 µM
[12] = second compound 0.316 µM, first compound 1 µM
[13] = second compound 1 µM, first compound 0.0316 µM
[14] = second compound 1 µM, first compound 0.1 µM
[15] = second compound 1 µM, first compound 0.316 µM
[16] = second compound 1 µM, first compound 1 µM
[17] = second compound 3.16 µM, first compound 0.0316 µM
[18] = second compound 3.16 µM, first compound 0.1 µM
[19] = second compound 3.16 µM, first compound 0.316 µM
[20] = second compound 3.16 µM, first compound 1 µM
[21] = second compound 10 µM, first compound 0.0316 µM
[22] = second compound 10 µM, first compound 0.1 µM
[23] = second compound 10 µM, first compound 0.316 µM
[24] = second compound 10 µM, first compound 1 µM
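Also: compound exposure lasted seven days before viability was read.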
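For viability, T/C in this document: percent of vehicle DMSO treated spheroid viability so 100% = untreated.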

`CC(C)NCC(C(=O)N1CCN(c2ncnc3c2C(C)CC3O)CC1)c1ccc(Cl)cc1` (centres undefined) + Cc1nc(NC(=O)N2CCCC2C(N)=O)sc1-c1ccnc(C(C)(C)C(F)(F)F)c1 showed an IC50 (second compound 0.0316 µM) of 2020 nM, an IC50 (second compound 0.1 µM) of over 10000 nM and an IC50 (second compound 0.316 µM) of 1840 nM. For the same compound, the IC50 (second compound 1 µM) was 1290 nM, the IC50 (second compound 3.16 µM) was 79.6 nM and the IC50 (second compound 10 µM) was 328 nM. It also gave a viability, T/C [1] of 80.2%, a viability, T/C [2] of 104% and a viability, T/C [3] of 75.9%. The viability, T/C [4] was 61.5%, the viability, T/C (second compound 0.0316 µM, first compound 3.16 µM) was 44.3% and the viability, T/C (second compound 0.0316 µM, first compound 10 µM) was 37.4%. For the same compound, the viability, T/C [5] was 89.2%, the viability, T/C [6] was 101% and the viability, T/C [7] was 82.5%. For the same compound, the viability, T/C [8] was 50.5%, the viability, T/C (second compound 0.1 µM, first compound 3.16 µM) was 61% and the viability, T/C (second compound 0.1 µM, first compound 10 µM) was 44.2%. It also gave a viability, T/C [9] of 94.7%, a viability, T/C [10] of 80.5% and a viability, T/C [11] of 86.2%. It also gave a viability, T/C [12] of 55.8%, a viability, T/C (second compound 0.316 µM, first compound 3.16 µM) of 49.4% and a viability, T/C (second compound 0.316 µM, first compound 10 µM) of 38.5%. It also gave a viability, T/C [13] of 70%, a viability, T/C [14] of 67.4% and a viability, T/C [15] of 72.8%. The viability, T/C [16] was 54.4%, the viability, T/C (second compound 1 µM, first compound 3.16 µM) was 33.6% and the viability, T/C (second compound 1 µM, first compound 10 µM) was 35.8%. For the same compound, the viability, T/C [17] was 74.9%, the viability, T/C [18] was 43% and the viability, T/C [19] was 46.5%. The viability, T/C [20] was 52.8%, the viability, T/C (second compound 3.16 µM, first compound 3.16 µM) was 39.9% and the viability, T/C (second compound 3.16 µM, first compound 10 µM) was 27.8%. The viability, T/C [21] was 47.9%, the viability, T/C [22] was 52.5% and the viability, T/C [23] was 51%. For the same compound, the viability, T/C [24] was 35.9%, the viability, T/C (second compound 10 µM, first compound 3.16 µM) was 39.3% and the viability, T/C (second compound 10 µM, first compound 10 µM) was 32.2%.
`CCN1CCN(Cc2ccc(Nc3ncc(F)c(-c4cc(F)c5nc(C)n(C(C)C)c5c4)n3)nc2)CC1` + Cc1nc(NC(=O)N2CCCC2C(N)=O)sc1-c1ccnc(C(C)(C)C(F)(F)F)c1 showed an IC50 (second compound 0.0316 µM) of 148 nM, an IC50 (second compound 0.1 µM) of 43.2 nM and an IC50 (second compound 0.316 µM) of 55.5 nM. The IC50 (second compound 1 µM) was 18.8 nM, the IC50 (second compound 3.16 µM) was under 3.16 nM and the IC50 (second compound 10 µM) was under 3.16 nM. It also gave a viability, T/C (second compound 0.0316 µM, first compound 0.00316 µM) of 88.8%, a viability, T/C (second compound 0.0316 µM, first compound 0.01 µM) of 68.9% and a viability, T/C [1] of 64.3%. It also gave a viability, T/C [2] of 57.2%, a viability, T/C [3] of 43% and a viability, T/C [4] of 32.4%. For the same compound, the viability, T/C (second compound 0.1 µM, first compound 0.00316 µM) was 94.5%, the viability, T/C (second compound 0.1 µM, first compound 0.01 µM) was 92.2% and the viability, T/C [5] was 53.3%. The viability, T/C [6] was 45.6%, the viability, T/C [7] was 37.5% and the viability, T/C [8] was 35.4%. It also gave a viability, T/C (second compound 0.316 µM, first compound 0.00316 µM) of 86.6%, a viability, T/C (second compound 0.316 µM, first compound 0.01 µM) of 71.4% and a viability, T/C [9] of 52.4%. It also gave a viability, T/C [10] of 44.9%, a viability, T/C [11] of 41.2% and a viability, T/C [12] of 32.4%. It also gave a viability, T/C (second compound 1 µM, first compound 0.00316 µM) of 69.7%, a viability, T/C (second compound 1 µM, first compound 0.01 µM) of 59.2% and a viability, T/C [13] of 40.8%. For the same compound, the viability, T/C [14] was 37.7%, the viability, T/C [15] was 26.1% and the viability, T/C [16] was 28.3%. The viability, T/C (second compound 3.16 µM, first compound 0.00316 µM) was 41.5%, the viability, T/C (second compound 3.16 µM, first compound 0.01 µM) was 44.6% and the viability, T/C [17] was 42.6%. The viability, T/C [18] was 30.7%, the viability, T/C [19] was 25.7% and the viability, T/C [20] was 30.1%. The viability, T/C (second compound 10 µM, first compound 0.00316 µM) was 39.2%, the viability, T/C (second compound 10 µM, first compound 0.01 µM) was 44.7% and the viability, T/C [21] was 34.1%. For the same compound, the viability, T/C [22] was 26.2%, the viability, T/C [23] was 35% and the viability, T/C [24] was 28.5%.
